Source: patent US20250312352A1, “GLP-1R MODULATING COMPOUNDS” (Gilead Sciences, Inc., priority 2021, published 2025)

molecular target: T1, GLP-1R (Homo sapiens, UniProt P43220); assay: GLP-1R activation cAMP assay (Assay 1 or Assay 2); type: cell-based; details: cAMP increase in CHO cells stably expressing GLP-1R; compounds run on one of the two cAMP assays
T1 construct: host or cells: CHO cells
Method in brief: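 CHO cells stably expressing human GLP-1R were incubated 1 h in HBSS/20 mM HEPES/0.1% BSA, then exposed to 10-point agonist dilutions for 30 min at 37 °C. cAMP increase was measured with an HTRF Gs dynamic kit; EC50 from sigmoidal fit of response versus log concentration.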

T1 sequence (P43220 24-463): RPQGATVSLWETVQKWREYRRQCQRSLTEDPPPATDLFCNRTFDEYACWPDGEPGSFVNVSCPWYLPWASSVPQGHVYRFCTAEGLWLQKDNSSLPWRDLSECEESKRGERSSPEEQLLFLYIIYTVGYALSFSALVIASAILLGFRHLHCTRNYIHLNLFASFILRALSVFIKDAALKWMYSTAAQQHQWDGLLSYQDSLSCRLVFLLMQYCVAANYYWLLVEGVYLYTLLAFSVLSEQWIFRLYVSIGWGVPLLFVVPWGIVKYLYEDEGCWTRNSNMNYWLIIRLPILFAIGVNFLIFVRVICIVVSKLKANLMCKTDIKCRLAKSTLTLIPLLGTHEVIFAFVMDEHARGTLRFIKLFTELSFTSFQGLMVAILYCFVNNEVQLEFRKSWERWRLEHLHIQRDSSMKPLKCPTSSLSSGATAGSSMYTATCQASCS

SMILES	EC50 [nM]
COc1nnc(COc2cccc(-c3cc(F)c(Cc4nc5c(F)cc(C(=O)O)cc5n4C[C@@H]4CCO4)cc3F)n2)s1 [Example 351, (S)-2-(2,5-difluoro-4-(6-((5-methoxy-1,3,4-thiadiazol-2-yl)methoxy)pyridin-2-yl)benzyl)-4-fluoro-1-(oxetan-2-ylmethyl)-1H-benzo[d]imidazole-6-carboxylic acid]	0.182
COCCn1c(Cc2cc(F)c(-c3cccc(OCc4ccc(-c5cnn(Cc6cccnc6)c5)cc4F)n3)cc2F)nc2ccc(C(=O)O)cc21 [Example 237, 2-[[2,5-difluoro-4-[6-[[2-fluoro-4-[1-(3-pyridylmethyl)pyrazol-4-yl]phenyl]methoxy]-2-pyridyl]phenyl]methyl]-3-(2-methoxyethyl)benzimidazole-5-carboxylic acid]	3.68
O=C(O)c1ccc2nc(Cc3cc(F)c(-c4cccc(OCc5ncc(C#Cc6cnn(C7CC7)c6)s5)n4)cc3F)n(C[C@@H]3CCO3)c2c1 [Example 118, (S)-2-(4-(6-((5-((1-cyclopropyl-1H-pyrazol-4-yl)ethynyl)thiazol-2-yl)methoxy)pyridin-2-yl)-2,5-difluorobenzyl)-1-(oxetan-2-ylmethyl)-1H-benzo[d]imidazole-6-carboxylic acid]	0.44
Cc1cc(Cc2nc3ccc(C(=O)O)cc3n2[C@@H]2COCC2(C)C)c(F)cc1-c1cccc(OCc2ncc(Cl)s2)n1 [Example 257, (S)-2-(4-(6-((5-chlorothiazol-2-yl)methoxy)pyridin-2-yl)-2-fluoro-5-methylbenzyl)-1-(4,4-dimethyltetrahydrofuran-3-yl)-1H-benzo[d]imidazole-6-carboxylic acid]	0.583
CCOc1nnc(COc2cccc(-c3cc(F)c(Cc4nc5ccc(C(=O)O)cc5n4[C@@H]4COCC4(C)C)c(F)c3F)n2)s1 [Example 263, (S)-1-(4,4-dimethyltetrahydrofuran-3-yl)-2-(4-(6-((5-ethoxy-1,3,4-thiadiazol-2-yl)methoxy)pyridin-2-yl)-2,3,6-trifluorobenzyl)-1H-benzo[d]imidazole-6-carboxylic acid]	0.131
O=C(O)c1cc(F)c2nc(Cc3cc(F)c(-c4ccc(F)c(OCc5ncc(Cl)s5)n4)cc3F)n(C[C@@H]3CCO3)c2c1 [Example 311, (S)-2-(4-(6-((5-chlorothiazol-2-yl)methoxy)-5-fluoropyridin-2-yl)-2,5-difluorobenzyl)-4-fluoro-1-(oxetan-2-ylmethyl)-1H-benzo[d]imidazole-6-carboxylic acid]	0.03
CNC(=O)c1cc(Cl)c(COc2cccc(-c3ccc(Cc4nc5ccc(C(=O)O)cc5n4[C@@H]4COCC4(C)C)c(F)c3)n2)cn1 [Example 399, (S)-2-(4-(6-((4-chloro-6-(methylcarbamoyl)pyridin-3-yl)methoxy)pyridin-2-yl)-2-fluorobenzyl)-1-(4,4-dimethyltetrahydrofuran-3-yl)-1H-benzo[d]imidazole-6-carboxylic acid]	0.01
Cn1cncc1C#Cc1cnc(COc2cccc(-c3cc(F)c(Cc4nc5ccc(C(=O)O)cc5n4C[C@@H]4CCO4)cc3F)n2)cn1 [Example 156, (S)-2-(2,5-difluoro-4-(6-((5-((1-methyl-1H-imidazol-5-yl)ethynyl)pyrazin-2-yl)methoxy)pyridin-2-yl)benzyl)-1-(oxetan-2-ylmethyl)-1H-benzo[d]imidazole-6-carboxylic acid]	1.19
Cn1ncc(C#Cc2ccc(COc3cccc(-c4cc(F)c(Cc5nc6ccc(C(=O)O)cc6n5C[C@@H]5CCO5)cc4F)n3)c(F)c2)c1Cl [Example 361, (S)-2-(4-(6-((4-((5-chloro-1-methyl-1H-pyrazol-4-yl)ethynyl)-2-fluorobenzyl)oxy)pyridin-2-yl)-2,5-difluorobenzyl)-1-(oxetan-2-ylmethyl)-1H-benzo[d]imidazole-6-carboxylic acid]	0.62
CC1(C)COC[C@@H]1n1c(Cc2cc(F)c(-c3cccc(OCc4ncc(C#N)s4)n3)cc2F)nc2ccc(C(=O)O)cc21 [Example 182, (R)-2-(4-(6-((5-cyanothiazol-2-yl)methoxy)pyridin-2-yl)-2,5-difluorobenzyl)-1-(4,4-dimethyltetrahydrofuran-3-yl)-1H-benzo[d]imidazole-6-carboxylic acid]	0.19
COCCn1c(Cc2cc(F)c(-c3cccc(OCc4ccc(-c5cnn(CCN6CCOCC6)c5)cc4F)n3)cc2F)nc2ccc(C(=O)O)cc21 [Example 227, 2-(2,5-difluoro-4-(6-((2-fluoro-4-(1-(2-morpholinoethyl)-1H-pyrazol-4-yl)benzyl)oxy)pyridin-2-yl)benzyl)-1-(2-methoxyethyl)-1H-benzo[d]imidazole-6-carboxylic acid]	3.45
CN(C)C(=O)c1ccc(COc2cccc(-c3cc(F)c(Cc4nc5ccc(C(=O)O)cc5n4C[C@@H]4CCO4)cc3F)n2)cn1 [Example 44, (S)-2-(4-(6-((6-(dimethylcarbamoyl)pyridin-3-yl)methoxy)pyridin-2-yl)-2,5-difluorobenzyl)-1-(oxetan-2-ylmethyl)-1H-benzo[d]imidazole-6-carboxylic acid]	75.3

Second part, the molecule after the results:

EC50 [nM]	SMILES
0.28	O=C(O)c1ccc2nc(Cc3cc(F)c(-c4ccc(F)c(OCc5ncc(C(F)(F)F)s5)n4)cc3F)n(C[C@@H]3CCO3)c2c1 [Example 370, (S)-2-(2,5-difluoro-4-(5-fluoro-6-((5-(trifluoromethyl)thiazol-2-yl)methoxy)pyridin-2-yl)benzyl)-1-(oxetan-2-ylmethyl)-1H-benzo[d]imidazole-6-carboxylic acid]
0.62	Cn1cc(-c2cc(COc3cccc(-c4cc(F)c(Cc5nc6ccc(C(=O)O)cc6n5C[C@@H]5CCO5)cc4F)n3)nn2C)cn1 [Example 109, (S)-2-(4-(6-((1′,2-dimethyl-1′H,2H-[3,4′-bipyrazol]-5-yl)methoxy)pyridin-2-yl)-2,5-difluorobenzyl)-1-(oxetan-2-ylmethyl)-1H-benzo[d]imidazole-6-carboxylic acid]
1.54	O=C(O)c1ccc2nc(Cc3cc(F)c(-c4cccc(OCc5cc(C(F)(F)F)on5)n4)cc3F)n(C[C@@H]3CCO3)c2c1 [Example 24, (S)-2-(2,5-difluoro-4-(6-((5-(trifluoromethyl)isoxazol-3-yl)methoxy)pyridin-2-yl)benzyl)-1-(oxetan-2-ylmethyl)-1H-benzo[d]imidazole-6-carboxylic acid]
6.65	O=C(O)c1ccc2nc(Cc3cc(F)c(-c4cccc(OCc5ccn(CC(F)(F)F)n5)n4)cc3F)n(C[C@@H]3CCO3)c2c1 [Example 66, (S)-2-(2,5-difluoro-4-(6-((1-(2,2,2-trifluoroethyl)-1H-pyrazol-3-yl)methoxy)pyridin-2-yl)benzyl)-1-(oxetan-2-ylmethyl)-1H-benzo[d]imidazole-6-carboxylic acid]
1.44	O=C(O)c1ccc2nc(Cc3cc(F)c(-c4cccc(OCc5cc(C(F)(F)F)no5)n4)cc3F)n(C[C@@H]3CCO3)c2c1 [Example 60, (S)-2-(2,5-difluoro-4-(6-((3-(trifluoromethyl)isoxazol-5-yl)methoxy)pyridin-2-yl)benzyl)-1-(oxetan-2-ylmethyl)-1H-benzo[d]imidazole-6-carboxylic acid]
2.33	Cn1c(COc2cccc(-c3cc(F)c(Cc4nc5ccc(C(=O)O)cc5n4C[C@@H]4CCO4)cc3F)n2)nc2ccccc21 [Example 48, (S)-2-(2,5-difluoro-4-(6-((1-methyl-1H-benzo[d]imidazol-2-yl)methoxy)pyridin-2-yl)benzyl)-1-(oxetan-2-ylmethyl)-1H-benzo[d]imidazole-6-carboxylic acid]
0.13	N#Cc1cc(F)c(COc2cccc(-c3cc(F)c(Cc4nc5ccc(C(=O)O)cc5n4C[C@@H]4CCO4)cc3F)n2)s1 [Example 52, (S)-2-(4-(6-((5-cyano-3-fluorothiophen-2-yl)methoxy)pyridin-2-yl)-2,5-difluorobenzyl)-1-(oxetan-2-ylmethyl)-1H-benzo[d]imidazole-6-carboxylic acid]
0.96	O=C(O)c1ccc2nc(Cc3cc(F)c(-c4cccc(OCc5ccc(C(F)(F)F)o5)n4)cc3F)n(C[C@@H]3CCO3)c2c1 [Example 61, (S)-2-(2,5-difluoro-4-(6-((5-(trifluoromethyl)furan-2-yl)methoxy)pyridin-2-yl)benzyl)-1-(oxetan-2-ylmethyl)-1H-benzo[d]imidazole-6-carboxylic acid]
0.33	O=C(O)c1ccc2nc(Cc3cc(F)c(-c4cccc(OCc5cnc(Cl)s5)n4)cc3F)n(C[C@@H]3CCO3)c2c1 [Example 20, (S)-2-(4-(6-((2-chlorothiazol-5-yl)methoxy)pyridin-2-yl)-2,5-difluorobenzyl)-1-(oxetan-2-ylmethyl)-1H-benzo[d]imidazole-6-carboxylic acid]
0.14	NC(=O)c1cnc(COc2cccc(-c3cc(F)c(Cc4nc5ccc(C(=O)O)cc5n4C[C@@H]4CCO4)cc3F)n2)cn1 [Example 209, (S)-2-(4-(6-((5-carbamoylpyrazin-2-yl)methoxy)pyridin-2-yl)-2,5-difluorobenzyl)-1-(oxetan-2-ylmethyl)-1H-benzo[d]imidazole-6-carboxylic acid]
5.99	O=C(O)c1ccc2nc(Cc3cc(F)c(-c4cccc(OCc5cc[nH]n5)n4)cc3F)n(C[C@@H]3CCO3)c2c1 [Example 181, (S)-2-(4-(6-((1H-pyrazol-3-yl)methoxy)pyridin-2-yl)-2,5-difluorobenzyl)-1-(oxetan-2-ylmethyl)-1H-benzo[d]imidazole-6-carboxylic acid]
0.02	COc1cc(C(N)=O)ncc1COc1cccc(-c2cc(F)c(Cc3nc4ccc(C(=O)O)cc4n3C[C@@H]3CCO3)cc2F)n1 [Example 242, (S)-2-(4-(6-((6-carbamoyl-4-methoxypyridin-3-yl)methoxy)pyridin-2-yl)-2,5-difluorobenzyl)-1-(oxetan-2-ylmethyl)-1H-benzo[d]imidazole-6-carboxylic acid]
